{"source": "patent US12655099B2", "about": "“Substituted phenyl sulfide compound and application thereof” (SHENYANG SINOCHEM AGROCHEMICALS R&D CO., LTD., priority 2020, dated 2026)", "key": {"[1]": {"test_system": "Adult Spider Mite (Tetranychus cinnabarinus)", "experiment": "Activity against adult spider mite, spray on bean leaves, mortality after 72 h", "format": "in vivo", "details": "adult spider mites", "description": "According to the solubility of test compounds, the compounds were dissolved with acetone or dimethyl sulfoxide, and then diluted with 0.1% aqueous solution of Tween 80 to form 50 ml test liquid and the content of the acetone or the dimethyl sulfoxide in the total solution was not more than 10% for later use. The adult spider mites were put into two true leaves of bean plants. After the number of mites were investigated, the solution of certain concentrations of test compounds was sprayed by using a handheld Airbrush. Three replicates were set for each treatment. Then the leaves were maintained in standard observation room. After 72 h, the number of surviving mites were observed, and the mortality rate was calculated."}, "[2]": {"test_system": "Egg of Spider Mite (Tetranychus Cinnabarinus)", "experiment": "Activity against egg of spider mite, POTTER spray tower, incubation inhibition", "format": "in vivo", "details": "spider mite eggs; for inhibition at 1.25 µg/mL: Tetranychus cinnabarinus, read-out: Inhibition Rate (%)", "description": "According to the solubility of test compounds, the compounds were dissolved with acetone or dimethyl sulfoxide, and then diluted with 0.1% aqueous solution of Tween 80 to form 50 ml test liquid and the content of the acetone or the dimethyl sulfoxide in the total solution was not more than 10% for later use. The leaves of bean were chopped into leaf discs and put into a petri dish. Female adult mites were inoculated. After laying eggs, the female adult mites were removed. After the number of eggs were investigated, the solution of certain concentrations of test compounds were sprayed with a POTTER spray tower, for 2 mL per treatment, and blank control was set. When all eggs in the blank control were incubated, the number of eggs which were incubated and unincubated was recorded, and incubation inhibition rate of the eggs was calculated."}, "[3]": {"test_system": "Panonychus citri", "experiment": "Field trial against Panonychus citri on citrus trees", "format": "in vivo", "details": "spray, citrus tree", "description": "The trial was carried out in the citrus orchard in Yibin City, Sichuan Province. The test sample was “Dekopon”. The test citrus trees were 4 years old and the planting density was more than 70 plants/mu. The test compounds 6 and 14 were set at two different doses of 50 mg/L and 100 mg/L.\nAs the positive controls, Spirodiclofen suspension agent was set at one dose of 100 mg/L, and Pyridaben wettable powder was set at one dose of 100 mg/L. The test method was spraying by using Pentium 3WBD-20 sprayer, each treatment repeated three times. The number of initial mites was investigated before spraying, and the number of surviving mites was checked and recorded. The number of surviving mites was investigated on the 3 days, 7 days, 14 days, 21 days and 30 days after spraying respectively. The decline rate of mite populationg was counted and the control efficiency was calculated."}, "[4]": {"test_system": "Panonychus ulmi", "experiment": "Field trial for controlling Panonychus ulmi on apple trees", "format": "in vivo", "details": "spray, apple tree", "description": "The trial was carried out in the orchard of Research Institute of Pomology of Chinese Academy of Agricultural Sciences. The test sample was Starkrimson apple tree, which was 14 years old and the intervals between two plants was 2×4 m. The test compound 14 was set at two different doses of 50 mg/L and 100 mg/L, and Spirodiclofen suspension agent as the positive control was set at one dose of 50 mg/L. The test method was spraying by using the stretcher power sprayer, each treatment repeated three times. The number of initial mites was investigated before spraying, and the number of surviving mites was checked and recorded. The number of surviving mites was investigated on the 3 days, 7 days, 14 days and 21 days after spraying respectively. The decline rate of mite population was counted and the control efficiency was calculated.\n[formula] • The field trial results for compound 14 against Panonychus ulmi (Xingcheng, Liaoning, May, 2018) were shown in Table 4.Table 4"}, "[5]": {"test_system": "two-spotted spider mites", "details": "concentration of 50 ppm; cited from earlier work"}, "[6]": {"details": "Tetranychus cinnabarinus, 1.25 mg/L"}}}
{"compound": "Cc1cc(F)c(-c2cccc([N+](=O)[O-])c2)cc1SCC(F)(F)F", "note": "[Compound 5]", "values": [{"measurement": "Mortality (%)", "setting": "[1]; 0.625 mg/L", "value": 95.5, "unit": "%"}, {"measurement": "Mortality (%)", "setting": "[1]; 1.25 mg/L", "value": 100, "unit": "%"}, {"measurement": "Inhibition Rate (%)", "setting": "[2]; 0.625 mg/L", "value": 100, "unit": "%"}, {"measurement": "Inhibition Rate (%)", "setting": "[2]; 1.25 mg/L", "value": 100, "unit": "%"}]}
{"compound": "Cc1cc(F)c(-c2cccc([N+](=O)[O-])c2)cc1[S+]([O-])CC(F)(F)F", "note": "(centres unmarked) [Compound 6]", "values": [{"measurement": "Mortality (%)", "setting": "[1]; 0.625 mg/L", "value": 80.6, "unit": "%"}, {"measurement": "Mortality (%)", "setting": "[1]; 1.25 mg/L", "value": 97.6, "unit": "%"}, {"measurement": "Control efficiency (%) 3 days after pesticide application", "setting": "[3]; 50 mg/L", "value": 98.58, "unit": "%"}, {"measurement": "Control efficiency (%) 7 days after pesticide application", "setting": "[3]; 50 mg/L", "value": 96.69, "unit": "%"}, {"measurement": "Control efficiency (%) 14 days after pesticide application", "setting": "[3]; 50 mg/L", "value": 99.28, "unit": "%"}, {"measurement": "Control efficiency (%) 21 days after pesticide application", "setting": "[3]; 50 mg/L", "value": 95.86, "unit": "%"}, {"measurement": "Control efficiency (%) 30 days after pesticide application", "setting": "[3]; 50 mg/L", "value": 94.62, "unit": "%"}]}
{"compound": "O=[N+]([O-])c1cccc(-c2cc(SCC(F)(F)F)c(Cl)cc2F)c1", "note": "[Compound 8]", "values": [{"measurement": "Mortality (%)", "setting": "[1]; 0.625 mg/L", "value": 65.2, "unit": "%"}, {"measurement": "Mortality (%)", "setting": "[1]; 1.25 mg/L", "value": 90.7, "unit": "%"}]}
{"compound": "CSc1cccc(-c2cc(SCC(F)(F)F)c(C)cc2F)c1", "note": "[Compound 14]", "values": [{"measurement": "Control efficiency (%) 3 days after pesticide application", "setting": "[4]; 50 mg/L", "value": 92.2, "unit": "%"}, {"measurement": "Control efficiency (%) 7 days after pesticide application", "setting": "[4]; 50 mg/L", "value": 86.4, "unit": "%"}, {"measurement": "Control efficiency (%) 14 days after pesticide application", "setting": "[4]; 50 mg/L", "value": 97.3, "unit": "%"}, {"measurement": "Control efficiency (%) 21 days after pesticide application", "setting": "[4]; 50 mg/L", "value": 93.2, "unit": "%"}, {"measurement": "Control efficiency (%) 3 days after pesticide application", "setting": "[4]; 100 mg/L", "value": 94.4, "unit": "%"}, {"measurement": "Control efficiency (%) 7 days after pesticide application", "setting": "[4]; 100 mg/L", "value": 96.6, "unit": "%"}, {"measurement": "Control efficiency (%) 14 days after pesticide application", "setting": "[4]; 100 mg/L", "value": 99.8, "unit": "%"}, {"measurement": "Control efficiency (%) 21 days after pesticide application", "setting": "[4]; 100 mg/L", "value": 99.1, "unit": "%"}, {"measurement": "Control efficiency (%) 3 days after pesticide application", "setting": "[3]; 50 mg/L", "value": 99.61, "unit": "%"}, {"measurement": "Control efficiency (%) 7 days after pesticide application", "setting": "[3]; 50 mg/L", "value": 98.90, "unit": "%"}, {"measurement": "Control efficiency (%) 14 days after pesticide application", "setting": "[3]; 50 mg/L", "value": 99.08, "unit": "%"}, {"measurement": "Control efficiency (%) 21 days after pesticide application", "setting": "[3]; 50 mg/L", "value": 98.57, "unit": "%"}, {"measurement": "Control efficiency (%) 30 days after pesticide application", "setting": "[3]; 50 mg/L", "value": 97.35, "unit": "%"}, {"measurement": "Inhibition Rate (%)", "setting": "[2]; 0.625 mg/L", "value": 65.3, "unit": "%"}, {"measurement": "Inhibition Rate (%)", "setting": "[2]; 1.25 mg/L", "value": 95.8, "unit": "%"}]}
{"compound": "Cc1cc(F)c(-c2cccc(SCC(F)(F)F)c2)cc1SCC(F)(F)F", "note": "[Compound 19]", "values": [{"measurement": "Inhibition Rate (%)", "setting": "[2]; 0.625 mg/L", "value": 51.2, "unit": "%"}, {"measurement": "Inhibition Rate (%)", "setting": "[2]; 1.25 mg/L", "value": 81.1, "unit": "%"}]}
{"compound": "Cc1cc(F)c(-c2ccc(C(F)(F)F)cc2)cc1SCC(F)(F)F", "note": "[KC1, reference compound]", "values": [{"measurement": "mortality at 1.25 µg/mL", "setting": "[1]; [6]", "value": 36.5, "unit": "%"}, {"measurement": "inhibition at 1.25 µg/mL", "setting": "[2]; 1.25 mg/L", "value": 26.2, "unit": "%"}]}
{"compound": "Cc1cc(F)c(-c2cccc(C(F)(F)F)c2)cc1SCC(F)(F)F", "note": "[KC2, reference compound]", "values": [{"measurement": "mortality at 1.25 µg/mL", "setting": "[1]; [6]", "value": 56.6, "unit": "%"}, {"measurement": "inhibition at 1.25 µg/mL", "setting": "[2]; 1.25 mg/L", "value": 36.7, "unit": "%"}]}
{"compound": "Cc1cc(F)c(-c2cccc(OC(F)(F)F)c2)cc1SCC(F)(F)F", "note": "[KC3, reference compound]", "values": [{"measurement": "mortality at 1.25 µg/mL", "setting": "[1]; [6]", "value": 50.7, "unit": "%"}, {"measurement": "inhibition at 1.25 µg/mL", "setting": "[2]; 1.25 mg/L", "value": 20.7, "unit": "%"}]}
{"compound": "Cc1cc(F)c(-c2cccc(SCc3ccccc3)c2)cc1SCC(F)(F)F", "note": "[KC4]", "values": [{"measurement": "mortality at 1.25 µg/mL", "setting": "[1]; [6]", "value": 16.4, "unit": "%"}, {"measurement": "inhibition at 1.25 µg/mL", "setting": "[2]; 1.25 mg/L", "value": 40.8, "unit": "%"}, {"measurement": "lethal activity", "setting": "[5]", "value": "more than 90%"}]}
{"compound": "Cc1cc(F)c(-c2ccc([N+](=O)[O-])cc2)cc1SCC(F)(F)F", "note": "[KC5]", "values": [{"measurement": "mortality at 0.625 µg/mL", "setting": "[1]; Tetranychus cinnabarinus, 0.625 mg/L", "value": 29.8, "unit": "%"}, {"measurement": "mortality at 1.25 µg/mL", "setting": "[1]; [6]", "value": 71.7, "unit": "%"}]}
{"compound": "Cc1cc(F)c(-c2ccccc2[N+](=O)[O-])cc1SCC(F)(F)F", "note": "[KC6]", "values": [{"measurement": "mortality at 1.25 µg/mL", "setting": "[1]; [6]", "value": 0, "unit": "%"}]}
{"compound": "CC(C)(C)c1ccc(CSc2cnn(C(C)(C)C)c(=O)c2Cl)cc1", "note": "[Pyridaben, reference compound]", "values": [{"measurement": "Control efficiency (%) 3 days after pesticide application", "setting": "[3]; 100 mg/L", "value": 80.24, "unit": "%"}, {"measurement": "Control efficiency (%) 7 days after pesticide application", "setting": "[3]; 100 mg/L", "value": 61.51, "unit": "%"}, {"measurement": "Control efficiency (%) 14 days after pesticide application", "setting": "[3]; 100 mg/L", "value": 61.51, "unit": "%"}, {"measurement": "Control efficiency (%) 21 days after pesticide application", "setting": "[3]; 100 mg/L", "value": 51.62, "unit": "%"}, {"measurement": "Control efficiency (%) 30 days after pesticide application", "setting": "[3]; 100 mg/L", "value": 56.60, "unit": "%"}]}
{"compound": "CCC(C)(C)C(=O)OC1=C(c2ccc(Cl)cc2Cl)C(=O)OC12CCCCC2", "note": "[Spirodiclofen, reference compound]", "values": [{"measurement": "Control efficiency (%) 3 days after pesticide application", "setting": "[4]; 50 mg/L", "value": 49.6, "unit": "%"}, {"measurement": "Control efficiency (%) 7 days after pesticide application", "setting": "[4]; 50 mg/L", "value": 45.8, "unit": "%"}, {"measurement": "Control efficiency (%) 14 days after pesticide application", "setting": "[4]; 50 mg/L", "value": 90.3, "unit": "%"}, {"measurement": "Control efficiency (%) 21 days after pesticide application", "setting": "[4]; 50 mg/L", "value": 94.9, "unit": "%"}, {"measurement": "Control efficiency (%) 3 days after pesticide application", "setting": "[3]; 100 mg/L", "value": 91.09, "unit": "%"}, {"measurement": "Control efficiency (%) 7 days after pesticide application", "setting": "[3]; 100 mg/L", "value": 80.88, "unit": "%"}, {"measurement": "Control efficiency (%) 14 days after pesticide application", "setting": "[3]; 100 mg/L", "value": 80.88, "unit": "%"}, {"measurement": "Control efficiency (%) 21 days after pesticide application", "setting": "[3]; 100 mg/L", "value": 72.63, "unit": "%"}, {"measurement": "Control efficiency (%) 30 days after pesticide application", "setting": "[3]; 100 mg/L", "value": 73.60, "unit": "%"}]}
